Results from US9896663B2, “Leukaemia stem cell line, its method of production and uses thereof” (Peter MacCallum Cancer Institute, priority 2016, dated 2018).

Experiments:
[1] = test system: I-BET resistant clones; assay: Cell growth of I-BET resistant clones under JQ1; type: cell-based, mouse; details: 100 nM JQ1; FIG. 1C
Protocol: Following 72 hour incubation, resazurin was added to each well and plates were further incubated for 3 hours. Fluorescence was then read at 560 nm/590 nm on a Cytation 3 Imaging Reader (BioTek). Cell counts were performed using a haemocytometer. Determination of in vitro synergy in proliferation assays was undertaken according to the method of Zhao et al. (2014, Journal of molecular screening, 19: 817-821).

[2] = test system: L-GMPs from I-BET naive mice; assay: Clonogenic assay of sorted I-BET naive L-GMPs; type: cell-based, mouse; details: 1 μM I-BET; FIG. 2H
Protocol: (§1) Clonogenic potential was assessed through colony growth of derived cell lines plated in cytokine supplemented methylcellulose (Methocult M3434, Stemcell Technologies). […] Gr1−/CD11b- and Gr1+/CD11b+ fractions of resistant cell lines were plated in duplicate following FACS sorting at a cell dose of between 2×10^2 and 2×10^3 cells per plate. […] Cells were incubated at 37° C. and 5% CO2 for 7 to 10 days at which time colonies were counted.
Immunophenotype assessment for markers of committed differentiation was undertaken through staining with Alexa Fluor 700 anti-Gr-1 (108422, BioLegend) and Brilliant Violet 605 anti-CD11b (101237, BioLegend). Assessment of L-GMP populations was undertaken through staining with eFluor 660 anti-CD34 (50-0341-82, eBioscience), biotin lineage antibody cocktail (120-001-547, Miltenyi Biotec), PerCP/Cy5.5 anti-CD16/32 (101324, BioLegend), APC/Cy7 anti-CD117 (105826, BioLegend) and Pacific Blue anti-Ly-6A (122520, BioLegend) followed by secondary staining with V500 streptavidin (561419, BD Biosciences). […]

[3] = test system: I-BET resistant cells; assay: Clonogenic, apoptosis and cell cycle assays, I-BET resistant cells; type: cell-based, mouse; details: FIG. 1D-F
Protocol: as §1
(§2) Cell apoptosis was assessed using APC conjugated Annexin V (550475, BD Biosciences) and propidium iodide (PI) (P4864, Sigma-Aldrich) staining according to manufacturer's instructions.
(§3) For cell cycle analysis, cells were fixed overnight at −20° C. in 70% EtOH/PBS. Prior to flow cytometry analysis, cells were incubated at 37° C. for 30 minutes in PI staining solution (0.02 mg/mL PI, 0.05% v/v Triton-X in PBS, supplemented with DNase-free RNase A (19101, Qiagen) or incubated at room temperature for 10 minutes with 4′,6-diamidino-2-phenylindole (DAPI) staining solution (1 μg/ml DAPI, 0.05% v/v Triton-X in PBS).

[4] = test system: vehicle treated cells / I-BET naive bulk leukaemia cells; assay: Clonogenic, apoptosis and cell cycle assays, vehicle treated (I-BET naive) cells; type: cell-based, mouse
Protocol: as §1, §2, §3

[5] = test system: Murine HSPCs transduced with MLL-AF9; assay: Selection of MLL-AF9 transduced HSPCs in cytokine-supplemented methylcellulose with I-BET (IC40); type: cell-based, mouse
Description: Initial generation of immortalised parental cell lines was achieved through magnetic bead selection (Miltenyi Biotec) of c-kit positive cells, obtained from whole bone marrow of male and female C57BL/6 mice, and subsequent retroviral transduction with either an MSCV-MLL-AF9-IRES-YFP or an MSCV-MLL-ENL construct.
Individual vehicle-treated or resistant colonies were picked and transferred to liquid culture to generate clonal cell lines. […] Vehicle-treated clones were also continuously maintained in 0.1% DMSO and passaged in identical fashion. The parental cell line was continuously maintained with no exposure to vehicle or drug.

[6] = test system: human AML patient derived xenograft; assay: Patient derived xenograft (PDX) model of AML; type: in vivo, NOD SCID gamma (NSG) mice; details: I-BET 10 mg/kg for 2 weeks; FIG. 2G
Description: Immunophenotype assessment for markers of committed differentiation was undertaken through staining with Alexa Fluor 700 anti-Gr-1 (108422, BioLegend) and Brilliant Violet 605 anti-CD11b (101237, BioLegend). Assessment of L-GMP populations was undertaken through staining with eFluor 660 anti-CD34 (50-0341-82, eBioscience), biotin lineage antibody cocktail (120-001-547, Miltenyi Biotec), PerCP/Cy5.5 anti-CD16/32 (101324, BioLegend), APC/Cy7 anti-CD117 (105826, BioLegend) and Pacific Blue anti-Ly-6A (122520, BioLegend) followed by secondary staining with V500 streptavidin (561419, BD Biosciences). Assessment of leukemic LMPP and GMP populations in patient derived xenografts was undertaken through staining with APC/Cy7 anti-mouse CD45.1 (110716, Biolegend), eFluor 450 anti-mouse Ter119 (48-5921-82, eBioscience), FITC anti-human CD45 (11-9459-42, eBioscience), BV711 anti-human CD38 (563965, BD Biosciences), PE anti-human CD90 (561970, BD Biosciences), PE-Cy5 anti-human CD123 (15-1239-41, eBioscience), PerCP-Cy5.5 anti-human CD45RA (45-0458-42), biotin anti-human CD3 (555338, BD Biosciences), biotin anti-human CD19 (555411, BD Biosciences), PE-Cy7 anti-human CD33 (333946, BD Biosciences) and APC anti-human CD34 (555824, BD Biosciences) followed by secondary staining with V500 streptavidin (561419, BD Biosciences). […]

[7] = test system: MLL-AF9 AML, parental cell line; assay: Syngeneic transplantation AML model, recipients of the parental cell line, survival; type: in vivo, C57BL/6 mice; details: I-BET 20-30 mg/kg IP; P<0.01, n=6, log-rank; FIG. 1H
Protocol: (§4) Serial syngeneic transplantation studies of drug efficacy, generation of in vivo resistance and limit dilution analyses were performed with intravenous injection of between 10 to 2.5×10^6 cells per mouse obtained from bone marrow or spleen.
(§5) Syngeneic transplantation studies were performed in C57BL/6 mice (wild type or expressing Ptprc^a). All mice were 6-10 weeks old at the time of sub-lethal irradiation (300 cGy) and intravenous cell injection. […] Mice were randomly assigned treatment groups; treatment administration was not blinded. Sample sizes were determined according to the resource equation method. Differences in Kaplan-Meier survival curves were analysed using the log-rank statistic.

[8] = test system: MLL-AF9 AML, I-BET resistant cell line; assay: Syngeneic transplantation AML model, recipients of resistant cells, survival; type: in vivo, C57BL/6 mice; details: identical treatment strategy; P=0.877, n=6, log-rank; FIG. 1I
Protocol: as §4, §5

Compound	resistance of I-BET resistant clones to JQ1 [1]	L-GMPs able to survive in clonogenic assay [2]	I-BET mediated suppression of clonogenic capacity, induction of apoptosis and cell cycle arrest [3]	clonogenic potential ([4]; 1 μM I-BET, I-BET naive bulk leukaemia cells, FIG. 1D)	I-BET mediated suppression of clonogenic capacity, induction of apoptosis and cell cycle arrest ([4]; vehicle treated cells, FIG. 1D-F)	IC40 [5] [µM]	effect on leukemic LMPP population (hCD45 expression) [6]	survival [7]	survival [8]
Cc1sc2c(c1C)C(c1ccc(Cl)cc1)=N[C@@H](CC(=O)OC(C)(C)C)c1nnc(C)n1-2 [JQ1]	cross-resistance	–	–	–	–	–	–	–	–
COc1cc2c(cc1-c1c(C)noc1C)ncc1[nH]c(=O)n([C@H](C)c3ccccn3)c12 [I-BET, I-BET 151]	–	30-40%	impervious	virtually eradicates	exquisitely sensitive	0.4	enriches for the leukemic LMPP population	significant survival advantage	survival advantage is abrogated
